For assay [1], the target named is Cys242 in human PIK3CA (157-299) (Homo sapiens (Human), UniProt P42336). As to the kind of experiment: Covalent modification assay using MALDI-TOF MS. It is filed as biochemical. To be noted: 4 h reaction time point. The protocol: Matrix-Assisted Laser Desorption Ionization-Time of Flight Mass Spectrometry (MALDI-TOF MS) analysis of covalent modification of Cys242 in human PIK3CA (157-299) was performed.
Reaction: 3.33 μM or 1 μM of PIK3CA (157-299) protein (produced in-house by Protein Expression Laboratory, FNLCR/Leidos Biomed) in 20 mM HEPES buffer containing 150 mM NaCl, 2 mM MgCl2, pH 7.3 was prepared freshly before assay. Twelve-μL aliquots of protein were dispensed onto low volume 384-well plate, then 470 nL DMSO and 30 nL of tested compounds from 10 mM DMSO stocks were added to appropriate wells using ECHO 555 acoustic liquid handler (Labcyte Inc.). For each reaction/assay, three blanks were prepared by mixing 12 μL of protein solution with 500 nL DMSO. The wells content was carefully mixed by aspiration, and then the plate was sealed by an adhesive cover, centrifuged at 931 g for 1 minute, and kept in the dark at room temperature until 15 min, 30 min, 2 h, or 4 h collections.
Targetpretreatment: Before each assay MALDI target (Bruker MPT 384 ground steel BC) was pre-treated by pipetting on each spot 0.75 μL of saturated sinapinic acid in acetonitrile (ACN).
Sample preparation: At collection time point, 2 μL of reaction mixtures were pipetted out into […] MALDI matrix solution (saturated solution of sinapinic acid in 1:1 ACN:water solution containing 0.15% trifluoroacetic acid (TFA)) deposited on 384 well polypropylene plate. The resulting solution was mixed by aspiration, centrifuged at 931 g for 1 minute, then 1.5 μL aliquots were dispensed on pre-treated MALDI target using Beckman Coulter Biomek FX^P 96/384-Span-8 Laboratory Automation Workstation. Finally, the MALDI target was dried under a mild vacuum to produce spots with a fine crystalline structure.
Measurements: MALDI-TOF measurements were performed on Bruker Daltonics rapifleX Tissuetyper TOF-TOF mass spectrometer using linear mode and mass ranging from 16.0 to 19.6 kDa. Detector gain was set to 0.64×(459 V), sample rate to 5 GS/s, real-time smoothing to medium (175 MHz), laser smart beam pattern was set to “Custom” single smartbeam beam scan with a scan range of 40 μm on both X and Y axis, and the laser frequency was 10000 Hz. Spectra were automatically collected using the custom AutoXecute method. Laser power was auto adjusted using fuzzy control. The peak selection range was set to be between 16.0 and 18.5 kDa. Peak evaluation uses a half-width parameter set to be smaller than 40 Da for processed spectrograms (centroid peak detection; smoothed by SavitzkyGolay algorithm using 7 m/z width and 2 cycles; baseline was subtracted using a median algorithm with flatness 1 and median level 0). Fuzzy control used Proteins/Oligonucleotides protocol with minimum half-width 1/10 times above threshold. Up to 40000 satisfactory shots were collected in 10000 short steps. Dynamic termination was implemented to finish data collection when the peak signal/noise ratio was reaching a value of 1000.
Spectra processing: Spectra were smoothed by SavitzkyGolay algorithm using 7 m/z width and three cycles. Centroid peak detection algorithm was used with signal to noise threshold set to 6, relative intensity threshold 3%, peak width 10 m/z, and median baseline subtraction using flatness of 1 and the median level of 0.1. Peak intensity and area under the peak were evaluated and recorded for all peaks between 16.0 and 19.5 kDa.
Calculation of percent modification: Percent modification was calculated as a ratio of peak height for protein modified by compound to the sum of the peak height of remaining protein plus peak height for protein modified by a compound. If multiple modifications were observed each was calculated as a ratio of peak height for given modification versus the sum of peak heights for all observed protein species.

Assay [2] has as its system pAKT in BT474 cells. As to the kind of experiment: Cell-based pAKT HTRF assay in BT474 cells. To be noted: BT474 cells, 4 hr incubation, read-out: pAKT inhibition IC50 in BT474 cells. The method, then:
On Day 1, cells were seeded into 96-well plates at 2.5×10^4 cells/well in complete growth media (DMEM, 10% FBS). On Day 2, cells were treated with compounds at 0.25% DMSO. The source plate was created with compounds diluted in media at 5-fold the final assay concentration. The compounds are run in a 9-point concentration curve starting at 3 μM, with a 3-fold dilution between concentrations. 20 μL was transferred onto the cell plates (final volume in wells was 100 μL). Plates were harvested after 4 hr incubation by aspirating media and adding kit-supplied 1× supplemented lysis buffer to all wells (75 μL per well). Plates were then placed on a plate shaker and incubated at 850 rpm for an additional 30 min. The antibody mixture solution was prepared by diluting aliquoted d2 and Eu Cryptate antibodies 1:20 in kit supplied detection buffer, then mixed the diluted antibodies solutions (1:1 v:v). 4 μL of this solution was then added to a 384-well detection plate (Perkin Elmer; 6008230). Samples were homogenized by pipetting up and down and then transferred (16 μL of cell lysates) from the 96-well cell culture plate to two wells of the HTRF 384-well detection plate containing the antibody solution. Plates were centrifuged (524 g for 1 min) and allowed to incubate between 4 and 24 h at room temperature. The maximum signal is reached after 4 h incubation time and remains stable over a period of 24 hours. Therefore, readings can be made between 4 and 24 h of incubation. Plates were centrifuged again (524 g for 1 m), and analyzed on the EnVision plate reader using the following settings: Excitation 320 nm, Bandwidth […]; Emission 615 nm, Bandwidth […], Gain 10000, Flashes 100, Lag 60 μs.

[3] abbreviates: 1 μM protein target, 1:5 protein to compound ratio (compounds 853-1279).
Where [4] appears, read: 3.33 μM protein target, 1:7.5 protein to compound ratio (compounds 1-852).
Where [5] appears, read: Homo sapiens, BT-474, Compounds 10-999.

Here are results for 21 molecules from US20250230138A1, “COMPOUNDS HAVING A T-STRUCTURE FORMED BY AT LEAST FOUR CYCLES FOR USE IN THE TREATMENT OF CANCER AND OTHER INDICATIONS” (TheRas, Inc., priority 2022, published 2025).

pIC50: −log10 of the molar value. Where two headings read alike, the source gives them in different places.

Cys242 in human PIK3CA (157-299), sequence (P42336 157-299): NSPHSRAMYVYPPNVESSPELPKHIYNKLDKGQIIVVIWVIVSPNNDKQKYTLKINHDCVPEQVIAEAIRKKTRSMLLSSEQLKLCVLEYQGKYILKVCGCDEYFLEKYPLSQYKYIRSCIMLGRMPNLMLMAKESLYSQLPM

With `C=CC(=O)N1CCn2nc(-c3nc(-c4ccc5c(c4)CCN(C)C5=O)c4ccsc4c3-c3c(F)cc(F)cc3OCCO)cc2C1C` (stereo not drawn) [Compound 995], the “% of modification” value in assay [1] (setting [3]) is reported as “A (percent of modification of PIK3CA protein ≥75%)”. Moreover, the pIC50 (as a rule, the negative decadic logarithm of the IC50, by convention in mol/L) in assay [2] (Compounds 10-999) is greater than 7.00.
In the case of `C=CC(=O)N1CCc2ncc(-c3nc(-c4cnn(C)c4)c(C(F)(F)F)cc3-c3ccc(F)cc3OC(C)C)cc2C1` [Compound 360, 1-[3-[3-(4-fluoro-2-isopropoxy-phenyl)-6-(1-methylpyrazol-4-yl)-5-(trifluoromethyl)-2-pyridyl]-7,8-dihydro-5H-1,6-naphthyridin-6-yl]prop-2-en-1-one], in assay [1] (setting [4]), the “% of modification” value is “B (50%<percent of modification <75%)”. The pIC50 in assay [2] (setting [5]) was less than 5.52.
For `C=CC(=O)N1CCn2nc(-c3nc(-c4cnc5c(cnn5C)c4)c4ccsc4c3-c3c(F)cc(F)cc3OC[C@@H](C)O)cc2[C@H]1C` [Compound 893], in assay [1] (setting [3]), the “% of modification” value was “A (percent of modification of PIK3CA protein ≥75%)”. Also, in assay [2] (Compounds 10-999), the pIC50 is greater than 7.00.
Take `C=CC(=O)N1CCn2nc(-c3nc(-c4ccc(=O)n(C)c4)c4ccsc4c3-c3ccc(F)cc3OCCOC)nc2C1` [Compound 205]: the “% of modification” value in assay [1] (setting [4]) was “A (percent of modification of PIK3CA protein ≥75%)”. In assay [2] (Compounds 10-999), the pIC50 is greater than 7.00.
As for `C=CC(=O)N1CCn2nc(-c3nc(-c4ccc5cnncc5c4)c4ccsc4c3-c3c(F)cc(F)cc3OCCO)cc2C1C` (stereo not drawn) [Compound 660], in assay [1] (setting [4]), the “% of modification” value is reported as “C (25%≤percent of modification <50%)”. The pIC50 in assay [2] (Compounds 10-999) was 6.00 to 7.00.
As to `C=CC(=O)N1CCn2nc(-c3nc(-c4ccc5cnncc5c4)c4ccsc4c3-c3c(F)cc(F)cc3OCCO)cc2C1C` (stereo not drawn) [Compound 909], in assay [1] (setting [3]), the “% of modification” value is “A (percent of modification of PIK3CA protein ≥75%)”. Also, the pIC50 in assay [2] (Compounds 10-999) was greater than 7.00.
Regarding `C=CC(=O)N1CC(n2cc(-c3nc(C4=CCN(S(C)(=O)=O)CC4)c4ccsc4c3-c3ccc(F)cc3OC)cn2)C1` [Compound 299], the “% of modification” value in assay [1] (setting [4]) was “A (percent of modification of PIK3CA protein ≥75%)”. For the same molecule, in assay [2] (Compounds 10-999), the negative-log IC50 (pIC50) was 6.00 to 7.00.
On the same counts, the results for `C=CC(=O)N1CC[C@H](n2cc(-c3nc(-c4ccc5c(c4)CCNC5)c4ccsc4c3-c3ccc(F)cc3OCCOC)ccc2=O)[C@H]1C` [Compound 188] are “A (percent of modification of PIK3CA protein ≥75%)” and 6.00 to 7.00.
Regarding `C=CC(=O)N1CCc2ccc(-c3nc(-c4ccc5c(c4)CCN(CC(F)F)CC5)c4ccsc4c3-c3c(F)cc(F)cc3OCCOC)cc2C1` [Compound 1271], the “% of modification” value in assay [1] (setting [3]) was “D (percent of modification <25%)”. Besides, the pIC50 in assay [2] (Compounds 1000-1279) was less than 6.00.
Consider `C=CC(=O)N1CCc2nc(-c3nc(-c4cnc5c(c4)CN(C)CC5)c4ccsc4c3-c3c(F)cc(F)cc3OC(C)C)sc2C1` [Compound 309], for which, in assay [1] (setting [4]), the “% of modification” value is recorded as “A (percent of modification of PIK3CA protein ≥75%)”. The pIC50 in assay [2] (Compounds 10-999) is greater than 7.00.
In the case of `C=CC(=O)N1CC(n2cc(-c3nc(-c4ccc5c(c4)CCNC5)c4c(c3-c3ccc(F)cc3OCCOC)CCC4)ccc2=O)C1` [Compound 154], the “% of modification” value in assay [1] (setting [4]) was “A (percent of modification of PIK3CA protein ≥75%)”. In addition, in assay [2] (Compounds 10-999), the pIC50 was greater than 7.00.
Consider `C=CC(=O)N1CCn2nc(-c3nc(-c4ccc5c(c4)CN(CC(F)(F)F)CC5)c4ccsc4c3-c3c(F)cc(F)cc3OCCO)cc2C1C` (stereo not drawn) [Compound 1250], for which the “% of modification” value in assay [1] (setting [3]) is on record as “A (percent of modification of PIK3CA protein ≥75%)”. Moreover, in assay [2] (Compounds 1000-1279), the pIC50 was greater than 7.00.
In the case of `C=CC(=O)N1Cc2cc(-c3nc(-c4ccc5oc(C)nc5c4)c4ccsc4c3-c3c(F)cc(F)cc3OCC(C)O)nn2C(C)C1` (stereo not drawn) [Compound 683], the “% of modification” value in assay [1] (setting [4]) was “A (percent of modification of PIK3CA protein ≥75%)”. Further, the pIC50 in assay [2] (Compounds 10-999) was greater than 7.00.
With `C=CC(=O)N1CCc2ccc(-c3nc(-c4ccc5c(c4)CNC5=O)c4ccsc4c3-c3c(F)cc(F)cc3OCCOC)cc2C1` (single isomer, unassigned) [Compound 886], the “% of modification” value in assay [1] (setting [3]) is reported as “D (percent of modification <25%)”. In addition, the pIC50 in assay [2] (Compounds 10-999) is less than 5.52.
For the molecule `C=C(F)C(=O)N1CC(n2cc(-c3nc(-c4ccc5c(c4)CCNC5)c4ccsc4c3-c3ccc(F)cc3OC)cn2)C1` [Compound 114], the “% of modification” value in assay [1] (setting [4]) is “A (percent of modification of PIK3CA protein ≥75%)”. In addition, in assay [2] (Compounds 10-999), the pIC50 is 5.52 to 6.00.
As to `C=CC(=O)N1CCn2nc(-c3nc(-c4cnn(C)c4)c(Cl)cc3-c3ccc(F)cc3OCCOC)cc2C1` [Compound 355, 1-[2-[5-chloro-3-[4-fluoro-2-(2-methoxyethoxy)phenyl]-6-(1-methylpyrazol-4-yl)-2-pyridyl]-6,7-dihydro-4H-pyrazolo[1,5-a]pyrazin-5-yl]prop-2-en-1-one], the “% of modification” value in assay [1] (setting [4]) is listed as “A (percent of modification of PIK3CA protein ≥75%)”. Further, in assay [2] (setting [5]), the pIC50 is less than 5.52.
Consider `C=CC(=O)N1Cc2cc(-c3nc(C45CC(CNC(C)=O)(C4)C5)c4ccsc4c3-c3c(F)cc(F)cc3OCCOC)nn2CC1C` (stereo not drawn) [Compound 1246], for which the “% of modification” value in assay [1] (setting [3]) is recorded as “B (50%<percent of modification <75%)”. Besides, the pIC50 in assay [2] (Compounds 1000-1279) is 6.00 to 7.00.
Turning to `C=CC(=O)N1Cc2cc(-c3nc(-c4cnn(C)c4)c4ccsc4c3-c3c(F)cc(F)cc3OC[C@@H](C)O)nn2[C@@H](C)C1` [Compound 581], in assay [1] (setting [4]), the “% of modification” value is “D (percent of modification <25%)”. The pIC50 in assay [2] (Compounds 10-999) was 6.00 to 7.00.
As to `C=CC(=O)N1CCn2nc(-c3nc(-c4ccc5c(c4)CNC(=O)C5(C)C)c4ccsc4c3-c3c(F)cc(F)cc3OCCOC)cc2C1C` (stereo not drawn) [Compound 1079], in assay [1] (setting [3]), the “% of modification” value is on record as “A (percent of modification of PIK3CA protein ≥75%)”. Also, the pIC50 in assay [2] (Compounds 1000-1279) was greater than 7.00.
Regarding `C=CC(=O)N1CCc2nc(-c3nc(-c4ccc5c(c4)CCN(C)C5)c4ccsc4c3-c3c(F)cc(F)cc3OC(C)C)sc2C1` (single isomer, unassigned) [Compound 448], the “% of modification” value in assay [1] (setting [4]) was “A (percent of modification of PIK3CA protein ≥75%)”. For the same molecule, the pIC50 in assay [2] (Compounds 10-999) was greater than 7.00.
As to `C=CC(=O)N1CCn2nc(-c3nc(-c4ccc5c(c4)CN(CC(F)(F)F)CC5)c4ccsc4c3-c3c(F)cc(F)cc3OCCOC)cc2C1C` (stereo not drawn) [Compound 1252], the “% of modification” value in assay [1] (setting [3]) was “A (percent of modification of PIK3CA protein ≥75%)”. The pIC50 in assay [2] (Compounds 1000-1279) was greater than 7.00.
